The text below walks through data of ChEMBL document CHEMBL2073967, “Characterisation of cerivastatin as a P-glycoprotein substrate: studies in P-glycoprotein-expressing cell monolayers and mdr1a/b knock-out mice” (Naunyn Schmiedebergs Arch Pharmacol, 2004).

The data set deals with ATP-dependent translocase ABCB1 (Homo sapiens, UniProt P08183). In words: TP_TRANSPORTER: transepithelial transport in L-MDR1 cells. The class given is functional, cell-based. As to conditions: pig.
ATP-dependent translocase ABCB1, sequence (P08183 whole entry): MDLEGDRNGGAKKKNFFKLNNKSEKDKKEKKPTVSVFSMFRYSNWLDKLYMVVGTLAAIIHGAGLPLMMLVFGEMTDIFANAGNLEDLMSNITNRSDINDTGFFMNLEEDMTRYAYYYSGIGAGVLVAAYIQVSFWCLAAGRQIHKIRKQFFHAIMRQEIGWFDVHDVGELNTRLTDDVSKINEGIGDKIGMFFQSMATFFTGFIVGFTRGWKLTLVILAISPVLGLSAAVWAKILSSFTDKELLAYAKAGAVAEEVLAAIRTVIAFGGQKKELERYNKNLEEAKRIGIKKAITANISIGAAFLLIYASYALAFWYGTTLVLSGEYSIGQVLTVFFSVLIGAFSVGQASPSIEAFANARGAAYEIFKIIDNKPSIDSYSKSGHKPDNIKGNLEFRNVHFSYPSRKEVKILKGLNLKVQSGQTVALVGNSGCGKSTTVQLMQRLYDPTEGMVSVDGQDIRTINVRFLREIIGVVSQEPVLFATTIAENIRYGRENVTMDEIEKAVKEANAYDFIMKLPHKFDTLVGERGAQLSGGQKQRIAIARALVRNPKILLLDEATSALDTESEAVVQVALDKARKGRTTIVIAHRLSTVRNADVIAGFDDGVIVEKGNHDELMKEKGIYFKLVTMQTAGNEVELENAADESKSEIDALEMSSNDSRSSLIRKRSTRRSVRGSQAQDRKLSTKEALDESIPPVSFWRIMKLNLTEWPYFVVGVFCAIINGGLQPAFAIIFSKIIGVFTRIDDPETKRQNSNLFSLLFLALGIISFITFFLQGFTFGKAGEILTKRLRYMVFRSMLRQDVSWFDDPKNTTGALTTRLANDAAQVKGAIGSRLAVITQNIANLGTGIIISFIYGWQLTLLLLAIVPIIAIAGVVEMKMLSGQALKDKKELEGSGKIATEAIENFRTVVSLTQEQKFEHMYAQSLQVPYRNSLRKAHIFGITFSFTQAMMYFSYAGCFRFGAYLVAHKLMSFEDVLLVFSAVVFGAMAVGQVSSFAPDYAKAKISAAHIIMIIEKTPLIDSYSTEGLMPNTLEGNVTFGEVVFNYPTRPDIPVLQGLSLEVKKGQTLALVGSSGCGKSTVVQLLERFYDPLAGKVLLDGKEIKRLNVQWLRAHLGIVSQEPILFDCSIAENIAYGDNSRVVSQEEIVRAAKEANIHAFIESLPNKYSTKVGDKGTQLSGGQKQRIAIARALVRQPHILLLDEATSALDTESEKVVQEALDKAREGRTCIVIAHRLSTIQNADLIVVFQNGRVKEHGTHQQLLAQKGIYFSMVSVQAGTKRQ

Regarding `COCc1c(C(C)C)nc(C(C)C)c(/C=C/[C@@H](O)C[C@@H](O)CC(=O)O)c1-c1ccc(F)cc1` [CERIVASTATIN], the Activity result is “substrate [+]”.
